Values after ≈ are worked out from the molar mass of the structure shown. Active and inactive are the calls of the source. The rule behind the calls is not given here.
Key:
Escherichia coli = assay: Antibacterial activity against Escherichia coli assessed as growth inhibition at 100 uM after 24 hrs by turbidimetric analysis; assay type: functional, organism-based
Ralstonia solanacearum = assay: Antibacterial activity against Ralstonia solanacearum assessed as growth inhibition at 100 uM after 24 hrs by turbidimetric analysis; assay type: functional, organism-based
Streptomyces scabiei [1] = assay: Antibacterial activity against Streptomyces scabiei CGMCC4.7610246 assessed as growth inhibition at 100 uM after 36 hrs by turbidimetric analysis; assay type: functional, organism-based
Staphylococcus aureus [2] = assay: Antibacterial activity against Staphylococcus aureus ATCC 25923 assessed as growth inhibition at 100 uM after 24 hrs by turbidimetric analysis; assay type: functional; settings: for inhibition of growth at 100 µM: ATCC 25923, 24 h, read-out: GI
Bacillus spizizenii [3] = assay: Antibacterial activity against Bacillus subtilis ATCC 6633 assessed as growth inhibition at 100 uM after 24 hrs by turbidimetric analysis; assay type: functional; settings: for inhibition of growth at 100 µM: ATCC 6633, 24 h, read-out: GI
Streptomyces scabiei [4] = assay: Antibacterial activity against Streptomyces scabiei CGMCC4.7610246 assessed as growth inhibition after 36 hrs by turbidimetric analysis; assay type: functional; settings: CGMCC4.7610246, 36 h
Staphylococcus aureus [5] = assay: Antibacterial activity against Staphylococcus aureus ATCC 25923 assessed as growth inhibition after 24 hrs by turbidimetric analysis; assay type: functional; settings: ATCC 25923, 24 h
Bacillus spizizenii [6] = assay: Antibacterial activity against Bacillus subtilis ATCC 6633 assessed as growth inhibition after 24 hrs by turbidimetric analysis; assay type: functional; settings: ATCC 6633, 24 h
Staphylococcus aureus [7] = assay: Potency index, ratio of ampicillin MIC to compound MIC for Staphylococcus aureus ATCC 25923; assay type: functional
Staphylococcus aureus [8] = assay: Antibacterial activity against Staphylococcus aureus ATCC 25923 assessed as growth inhibition after 2 to 24 hrs; assay type: functional, organism-based
Staphylococcus aureus [9] = assay: Upregulation of seaR gene expression in Staphylococcus aureus ATCC 25923 at 0.5 x MIC by Q-RT-PCR analysis relative to control; assay type: functional, organism-based
Staphylococcus aureus [10] = assay: Upregulation of fmhB gene expression in Staphylococcus aureus ATCC 25923 at 0.5 x MIC by Q-RT-PCR analysis relative to control; assay type: functional, organism-based
Staphylococcus aureus [11] = assay: Downregulation of lytM gene expression in Staphylococcus aureus ATCC 25923 at 0.5 x MIC by Q-RT-PCR analysis relative to control; assay type: functional, organism-based
Staphylococcus aureus [12] = assay: Upregulation of hla gene expression in Staphylococcus aureus ATCC 25923 at 0.5 x MIC by Q-RT-PCR analysis relative to control; assay type: functional, organism-based
Bacillus spizizenii [13] = assay: Upregulation of ykuD gene expression in Bacillus subtilis ATCC 6633 at 0.5 x MIC by Q-RT-PCR analysis relative to control; assay type: functional
Bacillus spizizenii [14] = assay: Downregulation of lytF gene expression in Bacillus subtilis ATCC 6633 at 0.5 x MIC by Q-RT-PCR analysis relative to control; assay type: functional, organism-based
Bacillus spizizenii [15] = assay: Downregulation of yhdT gene expression in Bacillus subtilis ATCC 6633 at 0.5 x MIC by Q-RT-PCR analysis relative to control; assay type: functional, organism-based
Bacillus spizizenii [16] = assay: Downregulation of yqhB gene expression in Bacillus subtilis ATCC 6633 at 0.5 x MIC by Q-RT-PCR analysis relative to control; assay type: functional, organism-based
Bacillus spizizenii [17] = assay: Downregulation of mmgD gene expression in Bacillus subtilis ATCC 6633 at 0.5 x MIC by Q-RT-PCR analysis relative to control; assay type: functional, organism-based
Staphylococcus aureus [18] = assay: Downregulation of narG gene expression in Staphylococcus aureus ATCC 25923 at 0.5 x MIC by Q-RT-PCR analysis relative to control; assay type: functional, organism-based

Row | SMILES | growth inhibition (GI) (Streptomyces scabiei [1]) | growth inhibition (GI) (Staphylococcus aureus [2]) | growth inhibition (GI) (Bacillus spizizenii [3]) | MIC (Streptomyces scabiei [4]) | MIC (Staphylococcus aureus [5]) | inhibition of growth at 100 µM (Staphylococcus aureus [2]) | inhibition of growth at 100 µM (Bacillus spizizenii [3]) | MIC (Bacillus spizizenii [6]) | further results
1 | C[C@H]1[C@H](C)CC[C@]2(C(=O)OCc3ccccc3)CC[C@]3(C)C(=CC[C@@H]4[C@@]5(C)[C@H]6O[C@H]6[C@@H](O)C(C)(C)[C@@H]5CC[C@]43C)[C@H]12 | Active | Active | Active | – | – | – | – | – | growth inhibition (GI) (Escherichia coli): Active; growth inhibition (GI) (Ralstonia solanacearum): Active
2 | CCCOC(=O)[C@]12CC[C@@H](C)[C@H](C)[C@H]1C1=CC[C@@H]3[C@@]4(C)[C@@H](O)[C@H](O)[C@H](O)C(C)(C)[C@@H]4CC[C@@]3(C)[C@]1(C)CC2 | – | – | – | ≥ 100 µM | 8 µM (≈ 4.25 µg/mL) | > 95% | > 95% | 32 µM (≈ 17 µg/mL) | –
3 | CN[C@@H]1[C@H](O[C@H]2[C@H](O[C@H]3[C@H](O)[C@@H](O)[C@H](N=C(N)N)[C@@H](O)[C@@H]3N=C(N)N)O[C@@H](C)[C@]2(O)C=O)O[C@@H](CO)[C@H](O)[C@H]1O [STREPTOMYCIN] | – | – | – | 4 µM (≈ 2.33 µg/mL) | ≥ 100 µM | – | – | 2 µM (≈ 1.16 µg/mL) | –
4 | CCOC(=O)[C@]12CCC(C)(C)C[C@H]1C1=CC[C@@H]3[C@@]4(C)[C@@H](O)[C@H](O)[C@H](O)C(C)(C)[C@@H]4CC[C@@]3(C)[C@]1(C)CC2 | – | – | – | ≥ 100 µM | 1 µM (≈ 0.517 µg/mL) | > 95% | > 95% | 64 µM (≈ 33.1 µg/mL) | Ratio (Staphylococcus aureus [7]): 2; growth inhibition (GI) (Staphylococcus aureus [8]): Dose-dependent effect; Activity (Staphylococcus aureus [9]): Active; Activity (Staphylococcus aureus [10]): Active; Activity (Staphylococcus aureus [11]): Active; Activity (Staphylococcus aureus [12]): Active
5 | C[C@H]1[C@H](C)CC[C@]2(C(=O)O)CC[C@]3(C)C(=CC[C@@H]4[C@@]5(C)CC[C@H](O)C(C)(C)[C@@H]5CC[C@]43C)[C@H]12 | Active | Active | Active | – | – | – | – | – | Activity (Bacillus spizizenii [13]): Active; Activity (Bacillus spizizenii [14]): Active; Activity (Bacillus spizizenii [15]): Active; Activity (Staphylococcus aureus [9]): Active; Activity (Staphylococcus aureus [10]): Active; Activity (Bacillus spizizenii [16]): Active; Activity (Bacillus spizizenii [17]): Active; Activity (Staphylococcus aureus [12]): Active
6 | C[C@H]1[C@H](C)CC[C@]2(C(=O)OCc3ccccc3)CC[C@]3(C)C(=CC[C@@H]4[C@@]5(C)[C@H]6O[C@H]6[C@H](O)C(C)(C)[C@@H]5CC[C@]43C)[C@H]12 | Active | Active | Active | – | – | – | – | – | growth inhibition (GI) (Escherichia coli): Active; growth inhibition (GI) (Ralstonia solanacearum): Active
7 | CC1(C)S[C@@H]2[C@H](NC(=O)[C@H](N)c3ccccc3)C(=O)N2[C@H]1C(=O)O [AMPICILLIN] | – | – | – | ≥ 100 µM | 4 µM (≈ 1.4 µg/mL) | – | – | ≥ 100 µM | –
8 | CCCCOC(=O)[C@]12CCC(C)(C)C[C@H]1C1=CC[C@@H]3[C@@]4(C)[C@@H](O)[C@H](O)[C@H](O)C(C)(C)[C@@H]4CC[C@@]3(C)[C@]1(C)CC2 | – | – | – | ≥ 100 µM | 8 µM (≈ 4.36 µg/mL) | > 95% | > 95% | ≥ 100 µM | –
9 | CC(C)OC(=O)[C@]12CCC(C)(C)C[C@H]1C1=CC[C@@H]3[C@@]4(C)[C@@H](O)[C@H](O)[C@H](O)C(C)(C)[C@@H]4CC[C@@]3(C)[C@]1(C)CC2 | – | – | – | ≥ 100 µM | 8 µM (≈ 4.25 µg/mL) | > 95% | > 95% | 64 µM (≈ 34 µg/mL) | –
10 | CC(C)OC(=O)[C@]12CC[C@@H](C)[C@H](C)[C@H]1C1=CC[C@@H]3[C@@]4(C)[C@@H](O)[C@H](O)[C@H](O)C(C)(C)[C@@H]4CC[C@@]3(C)[C@]1(C)CC2 | – | – | – | ≥ 100 µM | 1 µM (≈ 0.531 µg/mL) | > 95% | > 95% | 4 µM (≈ 2.12 µg/mL) | fold change (FC) (Bacillus spizizenii [13]): 2.5; Ratio (Staphylococcus aureus [7]): 4; growth inhibition (GI) (Staphylococcus aureus [8]): Dose-dependent effect; Activity (Bacillus spizizenii [14]): Active; Activity (Bacillus spizizenii [15]): Active; Activity (Staphylococcus aureus [9]): Active; Activity (Staphylococcus aureus [10]): Active; Activity (Bacillus spizizenii [16]): inactive; Activity (Staphylococcus aureus [18]): Active; Activity (Bacillus spizizenii [17]): Active; Activity (Staphylococcus aureus [12]): Active
11 | COC(=O)[C@]12CC[C@@H](C)[C@H](C)[C@H]1C1=CC[C@@H]3[C@@]4(C)[C@@H](O)[C@H](O)[C@H](O)C(C)(C)[C@@H]4CC[C@@]3(C)[C@]1(C)CC2 | – | – | – | 64 µM (≈ 32.2 µg/mL) | 8 µM (≈ 4.02 µg/mL) | > 95% | > 95% | 32 µM (≈ 16.1 µg/mL) | –
12 | CC1(C)CC[C@]2(C(=O)OCc3ccc(Cl)cc3)CC[C@]3(C)C(=CC[C@@H]4[C@@]5(C)[C@@H](O)[C@H](O)[C@H](O)C(C)(C)[C@@H]5CC[C@]43C)[C@@H]2C1 | inactive | – | – | ≥ 100 µM | 64 µM (≈ 39.2 µg/mL) | – | – | ≥ 100 µM | –
13 | CC1(C)CC[C@]2(C(=O)O)CC[C@]3(C)C(=CC[C@@H]4[C@@]5(C)C=CC(=O)C(C)(C)[C@@H]5CC[C@]43C)[C@@H]2C1 | Active | Active | Active | – | – | – | – | – | –
14 | C[C@H]1[C@H](C)CC[C@]2(C(=O)OCc3ccccc3)CC[C@]3(C)C(=CC[C@@H]4[C@@]5(C)C=CC(=O)C(C)(C)[C@@H]5CC[C@]43C)[C@H]12 | Active | Active | Active | – | – | – | – | – | –
15 | CCCOC(=O)[C@]12CCC(C)(C)C[C@H]1C1=CC[C@@H]3[C@@]4(C)[C@@H](O)[C@H](O)[C@H](O)C(C)(C)[C@@H]4CC[C@@]3(C)[C@]1(C)CC2 | – | – | – | ≥ 100 µM | 2 µM (≈ 1.06 µg/mL) | > 95% | > 95% | 64 µM (≈ 34 µg/mL) | growth inhibition (GI) (Staphylococcus aureus [8]): Dose-dependent effect
16 | C[C@H]1[C@H](C)CC[C@]2(C(=O)OCc3ccccc3[N+](=O)[O-])CC[C@]3(C)C(=CC[C@@H]4[C@@]5(C)[C@@H](O)[C@H](O)[C@H](O)C(C)(C)[C@@H]5CC[C@]43C)[C@H]12 | inactive | Active | Active | – | – | – | – | – | –
17 | CC1(C)CC[C@]2(C(=O)OCc3ccccc3[N+](=O)[O-])CC[C@]3(C)C(=CC[C@@H]4[C@@]5(C)[C@@H](O)[C@H](O)[C@H](O)C(C)(C)[C@@H]5CC[C@]43C)[C@@H]2C1 | inactive | Active | Active | – | – | – | – | – | –
18 | CCCCOC(=O)[C@]12CC[C@@H](C)[C@H](C)[C@H]1C1=CC[C@@H]3[C@@]4(C)[C@@H](O)[C@H](O)[C@H](O)C(C)(C)[C@@H]4CC[C@@]3(C)[C@]1(C)CC2 | – | – | – | ≥ 100 µM | 8 µM (≈ 4.36 µg/mL) | > 95% | > 95% | 64 µM (≈ 34.9 µg/mL) | –
19 | C[C@H]1[C@H](C)CC[C@]2(C(=O)OCc3ccc([N+](=O)[O-])cc3)CC[C@]3(C)C(=CC[C@@H]4[C@@]5(C)[C@@H](O)[C@H](O)[C@H](O)C(C)(C)[C@@H]5CC[C@]43C)[C@H]12 | inactive | Active | Active | – | – | – | – | – | –

From ChEMBL document CHEMBL3414456, “Pentacyclic triterpene derivatives possessing polyhydroxyl ring A inhibit gram-positive bacteria growth by regulating metabolism and virulence genes expression” (2015)
